Consider ten compounds from patent US7737166B2, “Antifungal bicyclic hetero ring compounds” (Daiichi Sankyo Company, Limited, priority 2005, dated 2010).

Each structure is given as a SMILES string. Converted amounts (≈) assume the structure as drawn.

Holding throughout (experiment): Antifungal activity (GI80), growth inhibition in YPD20 medium by absorbance at 600 nm
Holding throughout (type): cell-based

The test system of one assay is C. albicans ATCC90028. The following applies: 37° C., absorbance 600 nm; for IC80: Candida albicans, ATCC90028, minimum concentration for at least 80% cell growth inhibition, read-out: GI80 (μg/ml) C. albicans ATCC90028; for GI80 (μg/ml) C. albicans ATCC90028: minimum concentration for at least 80% cell growth inhibition. As to the method:
(§1) The antifungal activity of the compounds of the invention was determined according to the method mentioned below.
(§2) An YPD20 medium (1% yeast extract, 2% peptone, 20% glucose) was used,
(§3) (2) Preparation of Cell Liquid for Inoculation:
(§4) Cells incubated overnight with Sabouraud dextrose agar at 30° C. were suspended in 0.1% Tween 80-added saline, and then added to a concentrated medium (1.33% yeast extract, 2.67% peptone, 13.33% glucose) so that the final cell concentration could be 5×10^3 cells/ml, thereby preparing a cell liquid for inoculation.
(§5) (3) Production of Chemical Dilution Plate:
(§6) A metered sample was dissolved in dimethyl sulfoxide, and a 2-fold dilution series was prepared using dimethyl sulfoxide. A chemical dilution of 2 μl each was added to a flat-bottom 96-well plate with 40% glucose (48 μl) put in each well, thereby producing a chemical dilution plate.
(§7) (4) Inoculation and Cultivation of Cell Liquid:
(§8) The cell liquid (150 μl) prepared in (2) was added to the chemical dilution plate produced in (3), followed by aerobic static cultivation at 37° C.
(§9) (5) Determination of Antifungal Activity (GI80 Value):
(§10) After cultivation for […], the plate was stirred, and its absorbance (600 nm) was measured. Based on the absorbance as the index, the minimum chemical concentration for at least 80% cell growth inhibition relative to the cell growth in the chemical-free well was computed as a GI80 value.

The test system of a further assay is C. glabrata ATCC48435. The following applies: 37° C., absorbance 600 nm; for IC80: Nakaseomyces glabratus, ATCC48435, minimum concentration for at least 80% cell growth inhibition, read-out: GI80 (μg/ml) C. glabrata ATCC48435; for GI80 (μg/ml) C. glabrata ATCC48435: minimum concentration for at least 80% cell growth inhibition. As to the method:
as §1, §2, §3, §4, §5, §6, §7, §8, §9, §10

Another assay has as its system C. albicans ATCC MYA-573. As to conditions: minimum concentration for at least 80% cell growth inhibition, 37° C., absorbance 600 nm; for IC80: Candida albicans, read-out: GI80 (μg/ml) C. albicans ATCC MYA-573. As to the method:
as §1, §2, §3, §4, §5, §6, §7, §8, §9, §10

As for `CCOC(=O)[C@@H]1C[C@H]1c1nc2c(C#N)c(C)c(-c3ccccc3)c(N3CC[C@H](N(C)C)C3)c2o1` (relative stereo) [Example 112, Ethyl (1R*,2R*)-2-{4-cyano-7-[(3S)-3-(dimethylamino)pyrrolidin-1-yl]-5-methyl-6-phenyl-1,3-benzoxazol-2-yl}cyclopropanecarboxylate], the IC80 stood at 0.032 µg/mL (≈ 0.0698 µM) with C. albicans ATCC90028, 0.032 µg/mL (≈ 0.0698 µM) with C. glabrata ATCC48435 and 0.063 µg/mL (≈ 0.137 µM) in the assay on C. albicans ATCC MYA-573.

For the compound `Cc1c(-c2ccccc2)c(N2CC[C@H](N(C)C)C2)c2oc([C@@H]3C[C@H]3C(=O)N(C)C)nc2c1C#N` (relative stereo) [Example 135, (1R*,2R*)-2-[4-Cyano-7-((S)-3-dimethylamino-pyrrolidinyl)-5-methyl-6-phenyl-benzoxazol-2-yl]-cyclopropanecarbonyldimethylamide], the “GI80 (μg/ml) C. albicans ATCC90028” value in the assay with C. albicans ATCC90028 is 0.125 µg/mL (≈ 0.273 µM). Also, the “GI80 (μg/ml) C. glabrata ATCC48435” value in the assay with C. glabrata ATCC48435 is 0.063 µg/mL (≈ 0.138 µM). The “GI80 (μg/ml) C. albicans ATCC MYA-573” value in the assay with C. albicans ATCC MYA-573 amounted to 0.125 µg/mL (≈ 0.273 µM).

On to `Cc1c(-c2ccccc2)c(N2CC[C@H](N(C)C)C2)c2oc(C(C)(C)COCc3ccccc3)nc2c1C#N` [Example 13, 2-[2-(Benzyloxy)-1,1-dimethylethyl]-7-[(3S)-3-(dimethylamino)pyrrolidin-1-yl]-5-methyl-6-phenyl-1,3-benzoxazole-4-carbonitrile], for which the IC80 in the assay with C. albicans ATCC90028 was 0.063 µg/mL (≈ 0.124 µM); with C. glabrata ATCC48435, 0.032 µg/mL (≈ 0.0629 µM); in the assay with C. albicans ATCC MYA-573, 0.125 µg/mL (≈ 0.246 µM).

Take `Cc1c(-c2ccccc2)c(N2CC[C@H](N(C)C)C2)c2oc(-c3ccco3)nc2c1C#N` [Example 34, 7-[(3S)-3-(Dimethylamino)pyrrolidin-1-yl]-2-(2-furyl)-5-methyl-6-phenyl-1,3-benzoxazole-4-carbonitrile]: the IC80 was determined as 0.25 µg/mL (≈ 0.606 µM) in the assay with C. albicans ATCC90028, 0.032 µg/mL (≈ 0.0776 µM) in the assay on C. glabrata ATCC48435 and 0.25 µg/mL (≈ 0.606 µM) in the assay on C. albicans ATCC MYA-573.

Consider `Cc1c(-c2ccccc2)c(N2CC[C@H](N(C)C)C2)c2oc(C(=O)N(C)CCO)nc2c1C#N` [Example 49, 4-Cyano-7-[(3S)-3-(dimethylamino)pyrrolidin-1-yl]N-(2-hydroxyethyl)-N,5-dimethyl-6-phenyl-1,3-benzoxazole-2-carboxamide], for which the IC80 with C. albicans ATCC90028 is 0.5 µg/mL (≈ 1.12 µM); in the assay on C. glabrata ATCC48435 it was 0.063 µg/mL (≈ 0.141 µM); in the assay with C. albicans ATCC MYA-573, 0.5 µg/mL (≈ 1.12 µM).

For the compound `Cc1c(-c2ccccc2)c(N2CC[C@H](N(C)C)C2)c2oc(C(=O)N(C)CC(=O)N(C)C)nc2c1C#N` [Example 50, 4-Cyano-N-[2-(dimethylamino)-2-oxoethyl]-7-[(3S)-3-(dimethylamino)pyrrolidin-1-yl]-N,5-dimethyl-6-phenyl-1,3-benzoxazole-2-carboxamide], the IC80 stood at 2 µg/mL (≈ 4.09 µM) with C. albicans ATCC90028, 0.25 µg/mL (≈ 0.512 µM) in the assay with C. glabrata ATCC48435 and 2 µg/mL (≈ 4.09 µM) in the assay on C. albicans ATCC MYA-573.

`CN[C@H]1CCN(c2c(-c3csc(C)n3)c(C)c(C#N)c3nc(C(=O)N(C)C)oc23)C1` [Example 52]: the “GI80 (μg/ml) C. albicans ATCC90028” value in the assay with C. albicans ATCC90028 came to 1 µg/mL (≈ 2.36 µM). In the assay with C. glabrata ATCC48435, the “GI80 (μg/ml) C. glabrata ATCC48435” value came out at 0.25 µg/mL (≈ 0.589 µM). For the same compound, the “GI80 (μg/ml) C. albicans ATCC MYA-573” value with C. albicans ATCC MYA-573 is 1 µg/mL (≈ 2.36 µM).

Turning to `CC(=O)N(C)c1nc2c(C#N)c(C)c(-c3ccccc3)c(N3CC[C@H](N(C)C)C3)c2o1` [Example 54, N-{4-Cyano-7-[(3S)-3-(dimethylamino)pyrrolidin-1-yl]-5-methyl-6-phenyl-1,3-benzoxazol-2-yl}-N-methylacetamide], the IC80 in the assay on C. albicans ATCC90028 came to 0.125 µg/mL (≈ 0.299 µM); in the assay on C. glabrata ATCC48435, 0.063 µg/mL (≈ 0.151 µM); in the assay with C. albicans ATCC MYA-573, 0.25 µg/mL (≈ 0.599 µM).

As to `Cc1c(-c2ccccc2)c(N2CC[C@H](N(C)C)C2)c2oc(N(C)C)nc2c1C#N` [Example 56, 2-(Dimethylamino)-7-[(3S)-3-(dimethylamino)pyrrolidin-1-yl]-5-methyl-6-phenyl-1,3-benzoxazole-4-carbonitrile], the IC80 in the assay with C. albicans ATCC90028 worked out at 0.125 µg/mL (≈ 0.321 µM); in the assay on C. glabrata ATCC48435, 0.063 µg/mL (≈ 0.162 µM); in the assay with C. albicans ATCC MYA-573 it was 0.5 µg/mL (≈ 1.28 µM).

As to `Cc1c(-c2ccccc2)c(N2CC[C@H](N(C)C)C2)c2oc(N(C)C(C)(C)C)nc2c1C#N` [Example 62, 2-(N-tert-Butyl-N-methylamino)-7-[(3S)-3-(dimethylamino)pyrrolidin-1-yl]-5-methyl-6-phenyl-1,3-benzoxazole-4-carbonitrile], the values for the IC80 with C. albicans ATCC90028, with C. glabrata ATCC48435 and in the assay on C. albicans ATCC MYA-573 were 0.063 µg/mL (≈ 0.146 µM), 0.032 µg/mL (≈ 0.0741 µM) and 0.063 µg/mL (≈ 0.146 µM), respectively.
